Consider 13 compounds from patent US7223782B2, “Pyrazole-amides and -sulfonamides” (Icagen, Inc., priority 2001, dated 2007).

pIC50: −log10 of the molar value.

T1 sequence (Q9Y5Y9 whole entry, species assumed): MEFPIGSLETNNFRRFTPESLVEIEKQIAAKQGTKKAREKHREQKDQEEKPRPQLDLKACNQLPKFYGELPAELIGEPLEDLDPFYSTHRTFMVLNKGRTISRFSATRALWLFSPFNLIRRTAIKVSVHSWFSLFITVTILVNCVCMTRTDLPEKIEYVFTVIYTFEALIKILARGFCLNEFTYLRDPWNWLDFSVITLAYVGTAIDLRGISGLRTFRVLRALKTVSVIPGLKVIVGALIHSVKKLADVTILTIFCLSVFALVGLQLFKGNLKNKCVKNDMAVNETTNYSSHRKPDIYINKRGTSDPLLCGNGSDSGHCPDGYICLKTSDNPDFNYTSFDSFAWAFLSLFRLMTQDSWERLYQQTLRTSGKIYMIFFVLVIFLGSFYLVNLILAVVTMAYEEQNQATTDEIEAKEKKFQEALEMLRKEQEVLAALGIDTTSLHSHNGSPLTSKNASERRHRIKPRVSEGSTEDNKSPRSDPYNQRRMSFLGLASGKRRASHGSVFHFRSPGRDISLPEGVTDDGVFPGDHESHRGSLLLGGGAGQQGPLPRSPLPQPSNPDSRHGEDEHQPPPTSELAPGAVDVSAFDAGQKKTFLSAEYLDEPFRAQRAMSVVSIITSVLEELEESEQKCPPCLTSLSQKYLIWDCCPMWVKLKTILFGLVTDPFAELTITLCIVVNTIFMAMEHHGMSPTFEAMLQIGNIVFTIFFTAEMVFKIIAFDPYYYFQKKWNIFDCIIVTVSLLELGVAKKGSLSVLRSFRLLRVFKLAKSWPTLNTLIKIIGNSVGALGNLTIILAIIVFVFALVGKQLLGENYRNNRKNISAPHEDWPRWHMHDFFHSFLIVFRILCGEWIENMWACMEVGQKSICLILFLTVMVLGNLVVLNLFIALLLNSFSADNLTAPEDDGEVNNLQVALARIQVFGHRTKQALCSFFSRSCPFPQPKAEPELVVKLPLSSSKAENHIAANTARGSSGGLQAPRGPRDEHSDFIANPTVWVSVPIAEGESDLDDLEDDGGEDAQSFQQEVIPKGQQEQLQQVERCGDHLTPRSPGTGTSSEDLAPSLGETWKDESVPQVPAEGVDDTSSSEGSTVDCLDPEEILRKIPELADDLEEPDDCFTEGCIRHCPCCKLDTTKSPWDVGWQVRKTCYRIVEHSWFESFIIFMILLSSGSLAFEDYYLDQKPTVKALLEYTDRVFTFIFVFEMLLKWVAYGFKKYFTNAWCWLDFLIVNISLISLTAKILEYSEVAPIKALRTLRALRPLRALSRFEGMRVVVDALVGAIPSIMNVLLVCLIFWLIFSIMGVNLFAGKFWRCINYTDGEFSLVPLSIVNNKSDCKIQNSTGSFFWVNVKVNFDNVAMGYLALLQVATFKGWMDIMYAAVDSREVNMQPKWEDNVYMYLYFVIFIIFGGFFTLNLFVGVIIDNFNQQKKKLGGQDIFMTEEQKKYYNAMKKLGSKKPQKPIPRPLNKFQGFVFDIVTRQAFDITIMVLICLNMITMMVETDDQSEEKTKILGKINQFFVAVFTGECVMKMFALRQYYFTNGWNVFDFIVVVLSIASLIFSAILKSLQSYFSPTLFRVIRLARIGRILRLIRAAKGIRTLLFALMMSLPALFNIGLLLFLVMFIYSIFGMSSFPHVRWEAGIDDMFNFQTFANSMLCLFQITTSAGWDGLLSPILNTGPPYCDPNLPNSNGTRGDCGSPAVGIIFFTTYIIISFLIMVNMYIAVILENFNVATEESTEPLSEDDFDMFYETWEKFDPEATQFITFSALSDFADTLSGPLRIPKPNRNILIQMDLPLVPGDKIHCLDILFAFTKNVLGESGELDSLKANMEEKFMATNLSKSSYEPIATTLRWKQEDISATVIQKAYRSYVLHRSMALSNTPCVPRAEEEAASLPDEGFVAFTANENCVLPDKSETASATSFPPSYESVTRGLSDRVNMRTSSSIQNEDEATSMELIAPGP

The assay has as its target T1, PN3 (Homo sapiens, UniProt Q9Y5Y9).
T1 construct: expressed in transfected cells
In words: 14C Guanidinium Ion Influx Binding Assay (flux assay). It counts as cell-based. The conditions noted are these: activity towards PN3, PN3 stably expressed in a host cell line, deltamethrine 10 μM. As to the method:
^14C Guanidinium Ion Influx Binding Assay
PN3 stably expressed in a host cell line were maintained in DMEM with 5% fetal bovine serum and 300 μg/ml G-418. The cells were subcultured and grown to confluence in 96-well plates 24–48 h before each experiment. After the growth medium was removed, the cells were washed with warm buffer (25 mM Hepes-Tris, 135 mM choline chloride, 5.4 mM potassium chloride, 0.98 mM magnesium sulfate, 5.5 mM glucose, and 1 mg/ml BSA, pH 7.4) and incubated in buffer on a 36° C. slide warmer for approximately 10 minutes. Various concentrations of the test compounds or standard sodium channel blockers (10 μM) and then deltamethrine (10 μM) were added to each well. After the cells were exposed to deltamethrine for 5 minutes, 5 μM of ^14C-guanidinium was added, incubated with the radioligand (30–60 min), washed with ice-cold buffer, and dissolved in 0.1N sodium hydroxide. The radioactivity and the protein concentration of each cell lysate were determined by liquid scintillation counting and the protein assay using Pierce BCA reagent.
In general, pIC50 refers to −log10 of the IC50, conventionally taken in molar units. `Cn1nc(-c2ccccc2)cc1NC(=O)c1cnn(-c2ccc(Cl)cc2)c1C(F)(F)F` [Compound 20, 1-(4-Chloro-phenyl)-5-trifluoromethyl-1H-pyrazole-4-carboxylic acid (2-methyl-5-phenyl-2H-pyrazol-3-yl)-amide] showed a pIC50 of 5.40 to 7.00.
Under `O=C(Nc1ccncc1)c1cnn(-c2ccc(Cl)cc2)c1C(F)(F)F` [Compound 23, 1-(4-Chloro-phenyl)-5-trifluoromethyl-1H-pyrazole-4-carboxylic acid pyridin-4-ylamide] stands 5.00 to 5.39; under `CCCc1c(C(=O)NC(Cc2ccccc2)C(=O)OC)cnn1-c1ccccc1` (stereo not shown) [Compound 39, 3-Phenyl-2-[(1-phenyl-5-propyl-1H-pyrazole-4-carbonyl)-amino]-propionic acid methyl ester], 5.40 to 7.00.
Next, `O=C(NCCc1ccccc1)c1cnn(-c2ccc(Cl)cc2)c1C(F)(F)F` [Compound 114, 1-(4-Chloro-phenyl)-5-trifluoromethyl-1H-pyrazole-4-carboxylic acid phenethyl-amide]: 4.52 to 5.00; `CS(=O)(=O)c1cccc(NC(=O)c2cnn(-c3ccc(Cl)cc3)c2C(F)(F)F)c1` [Compound 154, 1-(4-Chloro-phenyl)-5-trifluoromethyl-1H-pyrazole-4-carboxylic acid (3-methanesulfonyl-phenyl)-amide]: 5.40 to 7.00.
`O=C(NCCc1cccc(F)c1)c1cnn(-c2ccc(Cl)cc2)c1C(F)(F)F` [Compound 323, 1-(4-Chloro-phenyl)-5-trifluoromethyl-1H-pyrazole-4-carboxylic acid [2-(3-fluoro-phenyl)-ethyl]-amide] had a negative logarithm of the IC50 (pIC50) of 5.40 to 7.00.
Consider `O=C(NCCc1ccc(F)cc1)c1cnn(-c2ccc(Cl)cc2)c1C(F)(F)F` [Compound 411, 1-(4-Chloro-phenyl)-5-trifluoromethyl-1H-pyrazole-4-carboxylic acid [2-(4-fluoro-phenyl)-ethyl]-amide], for which the negative-log IC50 (pIC50) is 5.40 to 7.00.
The compound `O=C(NCCc1ccccc1Cl)c1cnn(-c2ccc(Cl)cc2)c1C(F)(F)F` [Compound 414, 1-(4-Chloro-phenyl)-5-trifluoromethyl-1H-pyrazole-4-carboxylic acid [2-(2-chloro-phenyl)-ethyl]-amide] gave a negative logarithm of the IC50 (pIC50) of 5.40 to 7.00.
Compound `O=C(NCc1ccc(C(F)(F)F)cc1)c1cnn(-c2ccccc2)c1C(F)(F)F` [Compound 444, 1-Phenyl-5-trifluoromethyl-1H-pyrazole-4-carboxylic acid 4-trifluoromethyl-benzylamide] gave a negative-log IC50 (pIC50) of 5.00 to 5.39.
On to `O=C(NCCc1cccc(Cl)c1)c1cnn(-c2cccc(Cl)c2)c1` [Compound 449, 1-(3-Chloro-phenyl)-1H-pyrazole-4-carboxylic acid [2-(3-chloro-phenyl)-ethyl]-amide], for which the pIC50 is 5.40 to 7.00.
`O=C(NCCc1cccc(Cl)c1)c1cnn(-c2ccc(F)cc2)c1C(F)(F)F` [Compound 480, 1-(4-Fluoro-phenyl)-5-trifluoromethyl-1H-pyrazole-4-carboxylic acid [2-(3-chloro-phenyl)-ethyl]-amide] showed a negative-log IC50 (pIC50) of 5.40 to 7.00.
Under `NS(=O)(=O)c1cccc(NC(=O)c2cnn(-c3ccc(Cl)cc3)c2C(F)(F)F)c1` [Compound 1054, 1-(4-Chloro-phenyl)-5-trifluoromethyl-1H-pyrazole-4-carboxylic acid (3-sulfamoyl-phenyl)-amide] stands 5.40 to 7.00; under `CN(C)CCNS(=O)(=O)c1cccc(NC(=O)c2cnn(-c3ccc(Cl)cc3)c2C(F)(F)F)c1` [Compound 1175, 1-(4-Chloro-phenyl)-5-trifluoromethyl-1H-pyrazole-4-carboxylic acid [3-(2-dimethylamino-ethylsulfamoyl)-phenyl]-amide], 5.00 to 5.39.
